Assay results from ChEMBL document CHEMBL1268846, “Synthesis and antiproliferative evaluation of N,N-disubstituted-N'-[1-aryl-1H-pyrazol-5-yl]-methnimidamides” (2010).

What was measured:
Format in all cases: functional
NCI-H661 = experiment: Growth inhibition of human NCI-H661 cells after 72 hrs by MTT assay; details: NCI-H661, 72 h
[1] = Growth inhibition of human NPC-TW01 cells after 72 hrs by MTT assay; details: NPC-TW01, 72 h
Jurkat = experiment: Growth inhibition of human Jurkat cells after 72 hrs by MTT assay

| Compound | GI50 (NCI-H661) [µM] | GI50 [1] [µM] | GI50 (Jurkat) [µM] |
| --- | --- | --- | --- |
| CN(C)/C=N/c1c(C=O)c(-c2ccccc2)nn1-c1ccccc1 | 31.4 | 9.3 | 23.5 |
| CN(C)/C=N/c1c(C=O)c(-c2ccccc2)nn1-c1ccccc1Cl | 31.4 | 23.3 | 26.3 |
| Cc1cccc(-n2nc(-c3ccccc3)c(C=O)c2/N=C/N(C)C)c1 | 31 | 8.9 | 9.7 |
| CN(C)/C=N/c1c(C=O)c(-c2ccccc2)nn1-c1cccc(Cl)c1 | 6.9 | 6.4 | 8.3 |
| CN(C)/C=N/c1c(C=O)c(-c2ccccc2)nn1-c1cccc([N+](=O)[O-])c1 | 50 | 36.7 | > 50 |
| CN(C)/C=N/c1c(C=O)c(-c2ccccc2)nn1-c1ccc(Br)cc1 | 6.7 | 7.4 | 7.3 |
| COc1ccc(-n2nc(-c3ccccc3)c(C=O)c2/N=C/N(C)C)cc1 | 33.4 | 20.2 | 19.7 |
| Cc1ccc(-c2nn(-c3ccccc3)c(/N=C/N(C)C)c2C=O)cc1 | 11.9 | 9.7 | 9.5 |
| CN(C)/C=N/c1c(C=O)c(-c2ccc(Cl)cc2)nn1-c1ccccc1 | 8.6 | 8.1 | 7.9 |
| COc1ccc(-c2nn(-c3ccccc3)c(/N=C/N(C)C)c2C=O)cc1 | 9.9 | 27.2 | 12.5 |
| CN(C)/C=N/c1c(C=O)c(C(C)(C)C)nn1-c1ccccc1 | 42.8 | > 50 | 43.5 |
| CCN(/C=N/c1c(C=O)c(-c2ccccc2)nn1-c1ccccc1)CC | 28.8 | 30.5 | 30 |
| O=Cc1c(-c2ccccc2)nn(-c2ccccc2)c1/N=C/N1CCCC1 | 17.6 | > 50 | 31.3 |
| O=Cc1c(-c2ccccc2)nn(-c2ccccc2)c1/N=C/N1CCCCC1 | 17.7 | 24.4 | 29 |
| CN/C=N/c1cc(-c2ccccc2)nn1-c1ccccc1 | > 50 | > 50 | > 50 |
| CN/C(C)=N/c1cc(-c2ccccc2)nn1-c1ccccc1 | > 50 | > 50 | > 50 |
| CC/C(=N\c1cc(-c2ccccc2)nn1-c1ccccc1)NC | > 50 | > 50 | > 50 |
| C/C(=N\c1cc(-c2ccccc2)nn1-c1ccccc1)N(C)C | 35.1 | > 50 | > 50 |
| CN(C)/C(=N/c1cc(-c2ccccc2)nn1-c1ccccc1)c1ccccc1 | 46.7 | 20.8 | 36.1 |
